The record followed here is patent US20090298903A1, “USE OF TETRAMIC ACID DERIVATIVES FOR INSECT CONTROL” (priority 2006, published 2009).

What all share (format): in vivo
The test system of assay [1] is Thrips palmi. Put plainly: Example 9: cucumbers against Thrips palmi. The conditions noted are these: for Efficacy (% Abbott) 3 d: 3 d after treatment 1, nymphs on leaves, Imidacloprid (100 SL) 100, (I-4) (240 SC + 0.2% rapeseed oil methyl ester) 72 g a.s./ha, two applications, interval 8 days; for Efficacy (% Abbott) 8 d: 8 d after treatment 1, Imidacloprid 100, (I-4) 72 g a.s./ha; for Efficacy (% Abbott) 11 d: 11 d after treatment 1, Imidacloprid 100, (I-4) 72 g a.s./ha; for Efficacy (% Abbott) 15 d: 15 d after treatment 1, Imidacloprid 100, (I-4) 72 g a.s./ha. How it is done: Plots approximately 10 m^2 in size which are planted with cucumbers are treated, in three replications, against Thrips palmi. The application is carried out with a knapsack sprayer which is operated with pressurized air. Here, the active substance Example (I-4) (240 SC), in a tank mix with 0.2% a.s. rapeseed oil methyl ester (500 EW) and the commercial standard Imidacloprid (100 SL), is applied at the specified application rates. The application is carried out with a water application rate of […]. Two applications are carried out at an interval of 8 days.
The test is evaluated 3, 8, 11 and 15 days after treatment 1 by scoring the destruction rate of the animals (nymphs) on the leaves.

In assay [2] the test system is Phyllocnistis citrella. Put plainly: Example 27: orange trees against Phyllocnistis citrella. The conditions noted are these: larvae on shoots; for Efficacy (% Abbott) 7 d: 7 d after treatment, Imidacloprid (192 SC) 140, (I-4) (150 OD) 132 g a.s./ha; for Efficacy (% Abbott) 14 d: 14 d after treatment, Imidacloprid 140, (I-4) 132 g a.s./ha. How it is done: Small orange trees on plots approximately 30 m^2 in size are treated, in four replications, against Phyllocnistis citrella. The application is carried out with a motor-operated knapsack sprayer. Here, the active substance Example (I-4) (150 OD) is tested against the commercial standard Imidacloprid (192 SC) at the specified rates. The water application rate is 935 l/ha.
The test is evaluated 7 and 14 days after the treatment by scoring the destruction rates of the larvae on the shoots in percent.

Assay [3] has as its system Ceutorhynchus napi. As to the kind of experiment: Example 26-A: oilseed rape against Ceutorhynchus napi. As to conditions: 55 d after treatment, larvae, Deltamethrin (25 EC) 5, (I-4) (+ 0.2% rapeseed oil methyl ester) 72, Thiacloprid (OD 240) 72, Lambda-cyhalothrin 5 g a.s./ha. How it is done:
Plots approx. 25 m^2 in size which are planted with oilseed rape cv. “Artus” are treated, in four replications, against Ceutorhynchus napi. The application is carried out with a motor-operated knapsack sprayer. Here, the active substance Example (I-4), in a tank mix with 0.2% a.s. rapeseed oil methyl ester (500 EW) and the commercial standards Deltamethrin (25 EC), lambda-cyhalothrin (S100) and Thiacloprid (OD 240), is tested at the specified application rates. The water application rate is 250 l/ha.
The test is evaluated 55 days after the treatment by scoring the destruction rate of the larvae on the plants.

The test system of assay [4] is Thrips palmi. Put plainly: Example 7: aubergines against Thrips palmi. As to conditions: for Efficacy (% Abbott) 7 d: 7 d after the second application, 20 leaves, Imidacloprid (100 SL) 0.0151 % a.s., (I-4) (+ 0.2% rapeseed oil methyl ester) 0.0096 % a.s.; for Efficacy (% Abbott) 13 d: 13 d after the second application; for Efficacy (% Abbott) 13 d / Efficacy (% Abbott) 21 d: Imidacloprid 0.0151 % a.s., (I-4) 0.0096 % a.s.; for Efficacy (% Abbott) 21 d: 21 d after the second application. The method, then:
Plots approximately 16.5 m^2 in size which are planted with aubergines are treated, in three replications, against Thrips palmi. Here, the active substance Example (I-4) and the commercial standard Imidacloprid (100 SL) is applied at the specified application rates, using a knapsack sprayer which is operated with compressed air. The water application rate is 750 l/ha. In the case of Example (I-4), 0.2% a.s. rapeseed oil methyl ester (500 EW) is added to the spray mixture. Three applications are carried out at intervals of 7 and 14 days, respectively.
The destruction rate in percent is determined on in each case 20 leaves. The following results are obtained 7, 13 and 21 days after the second application: […]

The subject of assay [5] is Ceratitis capitata. As to the kind of experiment: Example 20: peach trees against Ceratitis capitata. The conditions noted are these: animals on fruits. The method, then: Peach trees cv. “Oom Sarel” which are approximately 10 years old are treated, in three replications, against Ceratitis capitata. The application is carried out with a high-pressure sprayer or a knapsack sprayer which is operated with pressurized air. Here, the active substance Example (I-4) (150 OD) and the commercial standard Fenthion (500 EC) are tested at the specified application rates. The water application rate is 2500 l/ha. Three applications are carried out at an interval of 7 and 19 days, respectively.
The test is evaluated 9 and 16 days after treatment 3 by scoring the destruction rate of the animals on the fruits with the aid of the Abbott formula.

Assay [6] concerns Empoasca biguttula. As to the kind of experiment: Example 12: cotton against Empoasca biguttula. The conditions noted are these: for Efficacy (% H + T) 3 d: 3 d after second treatment, Henderson and Tilton, Imidacloprid (SL 100) 30, (I-4) (240 SC + 0.2% rapeseed oil methyl ester) 24, Buprofezin (WP50) 50 g a.s./ha; for Efficacy (% H + T) 7 d: 7 d after second treatment; for Efficacy (% H + T) 7 d / Efficacy (% H + T) 14 d / Efficacy (% H + T) 21 d: Imidacloprid 30, (I-4) 24, Buprofezin 50 g a.s./ha; for Efficacy (% H + T) 14 d: 14 d after second treatment; for Efficacy (% H + T) 21 d: 21 d after second treatment. How it is done:
Plots 10 m^2 in size which are planted with cotton are treated, in three replications, against Empoasca biguttula. The application is carried out with a knapsack sprayer operated with pressurized air. Here, the active substance Example (I-4) (240 SC), in a tank mix with 0.2% a.s. rapeseed oil methyl ester (500 EW), is tested against the commercial standards Imidacloprid (SL 100) and Buprofezin (WP50) at the specified application rates. Two applications are carried out at an interval of 7 days. The water application rate is 750 l/ha.
The test is evaluated 3, 7, 14 and 21 days after the second treatment by counting the live animals. Thereafter, the efficacy is calculated in percent, using the formula of Henderson and Tilton.

Assay [7] deals with flea beetles (Phyllotreta sp.). Put plainly: Example 24: aubergines against flea beetles. As to conditions: 7 d after the last of four treatments, larvae, Imidacloprid (100 SL) 100, (I-4) (100 OD) 70, Profenofos (500 EC) 500 g a.s./ha. The method, then:
Plots approx. 12 m^2 in size which are planted with aubergines cv. “DLP” are treated, in three replications, against flea beetles (Phyllotreta sp.). The application is carried out with a knapsack sprayer which is operated with pressurized air. Here, the active substance Example (I-4) (100 OD) and the commercial standards Imidacloprid (100 SL) and Profenofos (500 EC) are applied at the specified application rates. Four applications are carried out at intervals of 7, 8 and 10 days, with a water application rate of 750 l/ha.
The test is evaluated 7 days after the last treatment by scoring the destruction rate of the larvae on the plants.

Regarding `CCOC(=O)OC1=C(c2cc(C)ccc2C)C(=O)N[C@]12CC[C@@H](OC)CC2` [Example (I-4)], in assay [1], the “Efficacy (% Abbott) 3 d” value came out at 64.5 % Abbott, the “Efficacy (% Abbott) 8 d” value is on record as 91.0 % Abbott, the “Efficacy (% Abbott) 11 d” value is given as 80.4 % Abbott and the “Efficacy (% Abbott) 15 d” value was determined as 70.1 % Abbott. For the same molecule, in assay [2], the “Efficacy (% Abbott) 7 d” value stood at 97.9 % Abbott and the “Efficacy (% Abbott) 14 d” value is given as 68.2 % Abbott. Moreover, the “Efficacy (% Abbott) 55 d” value in assay [3] was 74.3 % Abbott. Further, in assay [4], the “Efficacy (% Abbott) 7 d” value is listed as 84 % Abbott, the “Efficacy (% Abbott) 13 d” value worked out at 88 % Abbott and the “Efficacy (% Abbott) 21 d” value was determined as 78 % Abbott. Also, the “Efficacy (% Abbott) 16 d after treatment 3” value in assay [5] (Fenthion 1700, (I-4) 100 g a.s./ha) is reported as 100 % Abbott. The “Efficacy (% Abbott) 9 d after treatment 3” value in assay [5] (Fenthion (500 EC) 1700, (I-4) (150 OD) 100 g a.s./ha) worked out at 86.7 % Abbott. Besides, in assay [6], the “Efficacy (% H + T) 3 d” value came to 92.1 % H + T, the “Efficacy (% H + T) 7 d” value came to 92.9 % H + T, the “Efficacy (% H + T) 14 d” value stood at 84.4 % H + T and the “Efficacy (% H + T) 21 d” value came out at 72.6 % H + T. The “Efficacy (% Abbott) 7 d” value in assay [7] is given as 89 % Abbott.

On to `O=[N+]([O-])NC1=NCCN1Cc1ccc(Cl)nc1` [Imidacloprid], for which, in assay [1], the “Efficacy (% Abbott) 3 d” value is on record as 85.3 % Abbott, the “Efficacy (% Abbott) 8 d” value is recorded as 85.5 % Abbott, the “Efficacy (% Abbott) 11 d” value stood at 91.7 % Abbott and the “Efficacy (% Abbott) 15 d” value is recorded as 77.1 % Abbott. For the same molecule, in assay [2], the “Efficacy (% Abbott) 7 d” value was 91.7 % Abbott and the “Efficacy (% Abbott) 14 d” value is 52.3 % Abbott. Further, in assay [4], the “Efficacy (% Abbott) 7 d” value turned out to be 72 % Abbott, the “Efficacy (% Abbott) 13 d” value is on record as 68 % Abbott and the “Efficacy (% Abbott) 21 d” value amounted to 24 % Abbott. In assay [6], the “Efficacy (% H + T) 3 d” value is recorded as 97.3 % H + T, the “Efficacy (% H + T) 7 d” value came to 99.6 % H + T, the “Efficacy (% H + T) 14 d” value is on record as 95.6 % H + T and the “Efficacy (% H + T) 21 d” value was determined as 72.5 % H + T. In assay [7], the “Efficacy (% Abbott) 7 d” value amounted to 98 % Abbott.
